The values below come from patent US20140336616A1, “DELIVERY DEVICE” (INTERNATIONAL SCIENTIFIC PTY LTD, priority 2012, published 2014).

Each structure is given as a SMILES string.

In this data set the test system is excised human skin. In words: Sodium fluorescein dye penetration into excised human skin in Franz cells, with LSCM imaging and image analysis. Format: in vitro ADME. As to conditions: 300 μL NaF 1 mg/mL in saline, 15 minutes, 34-35° C.; images from 73 μm deep. From the text:
Microneedle Treatment: A piece of gauze was folded in half 4 times and then the skin sample placed on top. In-situ skin tension was approximately simulated by stretching the skin over the gauze and pinning in place. A pre-prepared microneedle impact applicator was then used to apply the microneedle to the skin at speed (approximately 3 m·s−1). This applicator consisted of a housing, a spring-loaded plunger and the banks of laser cut microneedles (two 3-needle banks gave a total of 6 microneedles). The banks were mounted into the plunger which was then drawn back, loading the spring, and held in place using a pin. Upon removal of the pin, the plunger accelerated towards the skin, driving the microneedles through the stratum corneum and into the viable epidermis and dermis.
Dye incubation in Franz Cells: A Franz cell was prepared by applying vacuum grease to the sealing surfaces of the receptor and donor. […]
Laser scanning confocal microscopy (LSCM): To prepare the samples for LSCM, a cut was made around the imprint made by the Franz cell. […] The LSCM machine was then switched to the fluorescent mode with 488 nm excitation and 550±88 nm emission band was recorded. […]
Image analysis: The image data names were encoded to blind the image analysis researcher. […] Image J (NIH, Bethesda, Md.) was then used to quantify fluorescence intensity and dye positive areas. […]

With `O=C1OC2(c3ccc(O)cc3Oc3cc(O)ccc32)c2ccccc21` [NaF, Sodium Fluorescein], the “NaF dye penetration / fluorescence pattern (LSCM, visual)” value is reported as “no penetration of the dye beyond the stratum corneum”.
